Assay results taken from patent US10696686B2, “Herbicidally active (alkynyl-phenyl)-substituted cyclic dione compounds and derivatives thereof” (Syngenta Limited, priority 2013, dated 2020).

Columns and labels:
Experiment in all cases: Biological Example 3 glasshouse assay using various adjuvant systems, post-emergence foliar spray
Type in all cases: in vivo
[1] = test system: Brachiaria decumbens (BRADC); settings: 8 g/ha
Protocol: (§1) Post-emergence foliar spray application, 200 L/ha, usually one or two replicates for the weeds (depending on application rate), and two replicates for soybean.
(§2) Standard warm conditions (tropical), in glasshouse. Specifically, the glasshouse bay conditions are 24° C./18° C. day/night; 16/8 hours light/dark; 65% humidity.
(§3) The herbicidal application takes place at the following growth stages for plants which include inter alia one or more of the following plants (usually the herbicidal application takes place on at least the following plants: DIGSA, ELEIN, SETFA, ZEAMX, GLXMA Nikko, and GLXMA TMG133, and often also either BRADC or BRAPP):
Brachiaria decumbens (BRADC)—growth stage (GS) 12 or 13 (or GS 12)—or, if BRADC is not used, then usually Brachiaria platyphylla (BRAPP)—growth stage 12 or 13
(§4) Each test compound is applied with one of the following adjuvant systems (all percentages are final concentrations in the aqueous spray mixture):
(§5) Adjuvant system 1: 0.5% v/v Adigor™ *, 1.0% v/v AMS (ammonium sulphate) and 12.5% v/v IPA (isopropyl alcohol).
(§6) Adjuvant system 1A: 0.5% v/v Adigor™ * and 12.5% v/v IPA (isopropyl alcohol).
CAS Registry no. 166412-78-8), and is usually available from BASF. “Isononyl” in this context is thought to mean a mixture of two or more branched isomers of C9H19. […] A visual assessment of the % herbicidal damage is made 7 and 14 Days After herbicide Application (DAA) (or, in a minority of cases, 7 and 15 DAA), and the results are recorded as % visual herbicidal damage where 0%=no damage to plants and 100%=plant totally killed. *** Adjuvant system=either Adigor™ or Hexamoll DINCH™ or tris-(2-ethylhexyl) phosphate each at 0.5% v/v, and 12.5% v/v IPA (isopropyl alcohol), and 1.0% v/v AMS (ammonium sulphate); or 0.5% v/v Adigor™ and 12.5% v/v IPA (isopropyl alcohol); all percentages are final concentrations in the aqueous spray mixture. […]

Setaria faberi (SETFA) = settings: 8 g/ha
Protocol: as §1, §2, §3
Setaria faberi (SETFA)—growth stage 12 or 13
as §4, §5, §6
CAS Registry no. […] A visual assessment of the % herbicidal damage is made 7 and 14 Days After herbicide Application (DAA) (or, in a minority of cases, 7 and 15 DAA), and the results are recorded as % visual herbicidal damage where 0%=no damage to plants and 100%=plant totally killed. *** Adjuvant system=either Adigor™ or Hexamoll DINCH™ or tris-(2-ethylhexyl) phosphate each at 0.5% v/v, and 12.5% v/v IPA (isopropyl alcohol), and 1.0% v/v AMS (ammonium sulphate); or 0.5% v/v Adigor™ and 12.5% v/v IPA (isopropyl alcohol); all percentages are final concentrations in the aqueous spray mixture. […]
The percentages of herbicidal damage/plant control, at 14 Days After herbicide Application (DAA) (or, in a minority of cases, at 15 DAA), for the Compounds tested and for some of the plants tested, were in the following percentage ranges. […] Phytotoxicity on Glycine max (GLXMA, Soybean) Cultivar “TMG133” Glycine max (GLXMA, soybean) cultivar “TMG133” is Roundup Ready™ glyphosate-tolerant soybean cultivar TMG133, and is typically available from Monsanto in Brazil.

[2] = test system: Glycine max (GLXMA, soybean) cultivar TMG133
Protocol: as §1, §2, §3
Glycine max (GLXMA, soybean) cultivar “TMG133”—which is Roundup Ready™ glyphosate-tolerant soybean cultivar TMG133 (typically available from Monsanto in Brazil)—growth stage: 1st trifoliate.
as §4, §5, §6
CAS Registry no. 166412-78-8), and is usually available from BASF. “Isononyl” in this context is thought to mean a mixture of two or more branched isomers of C9H19. Method: Seeds of the weed (including volunteer) plants, typically including inter alia Digitaria sanguinalis (DIGSA), Eleusine indica (ELEIN), Setaria faberi (SETFA), Zea mays (ZEAMX, corn), and sometimes also [either Brachiaria decumbens (BRADC) or Brachiaria platyphylla (BRAPP)], are sown in seed trays (troughs) containing clay loam soil (pH 7.0, 2.2% organic matter, “Trough Mix A”); and soybean seed is sown in pots containing the same soil with 3 soybean seedlings per pot. The plants are sprayed with the test herbicide when they reach the growth stages mentioned above. The test herbicidal solutions are prepared by mixing the appropriate aliquots of the test substance(s) and one of the adjuvant systems indicated above *** in deionised water to give the desired treatment concentration. The herbicidal application is made as a foliar spray, using a tracksprayer. Following the herbicidal application, the plants are watered twice per day for the duration of the test. A visual assessment of the % herbicidal damage is made 7 and 14 Days After herbicide Application (DAA) (or, in a minority of cases, 7 and 15 DAA), and the results are recorded as % visual herbicidal damage where 0%=no damage to plants and 100%=plant totally killed. *** Adjuvant system=either Adigor™ or Hexamoll DINCH™ or tris-(2-ethylhexyl) phosphate each at 0.5% v/v, and 12.5% v/v IPA (isopropyl alcohol), and 1.0% v/v AMS (ammonium sulphate); or 0.5% v/v Adigor™ and 12.5% v/v IPA (isopropyl alcohol); all percentages are final concentrations in the aqueous spray mixture.
Compounds A8, A11 and A17, which are compounds of formula (I) according to the present invention, were tested in a test method substantially as described above.
Compound A8 was tested using the 0.5% v/v Adigor™+12.5% v/v IPA adjuvant system. Compounds A11 and A17 were tested using the 0.5% v/v Adigor™+1.0% v/v AMS+12.5% v/v IPA adjuvant system.
The percentages of herbicidal damage/plant control, at 14 Days After herbicide Application (DAA) (or, in a minority of cases, at 15 DAA), for the Compounds tested and for some of the plants tested, were in the following percentage ranges. […]

[3] = 14 DAA (A11: 14 or 15 DAA), adjuvant 0.5% v/v Adigor + 1.0% v/v AMS + 12.5% v/v IPA
[4] = 14 DAA, adjuvant 0.5% v/v Adigor + 12.5% v/v IPA

| Structure (SMILES) | percentage control of (phytotoxicity on) Brachiaria decumbens (BRADC) [1, 3] | percentage control of Setaria faberi (SETFA) (Setaria faberi (SETFA); [3]) | percentage phytotoxicity on Glycine max (GLXMA, soybean) cultivar TMG133 ([2]; 120 g/ha, 14 DAA (A11: 14 or 15 DAA), adjuvant 0.5% v/v Adigor + 1.0% v/v AMS + 12.5% v/v IPA) | percentage phytotoxicity on Glycine max (GLXMA, soybean) cultivar TMG133 ([2]; 240 g/ha, 14 DAA (A11: 14 or 15 DAA), adjuvant 0.5% v/v Adigor + 1.0% v/v AMS + 12.5% v/v IPA) | percentage control of (phytotoxicity on) Brachiaria decumbens (BRADC) [1, 4] | percentage control of (phytotoxicity on) Setaria faberi (SETFA) (Setaria faberi (SETFA); [4]) | percentage phytotoxicity on Glycine max (GLXMA, soybean) cultivar TMG133 ([2]; 120 g/ha, 14 DAA, adjuvant 0.5% v/v Adigor + 12.5% v/v IPA) |
| --- | --- | --- | --- | --- | --- | --- | --- |
| CC#Cc1cc(F)c(C2C(=O)CC(CCSC)CC2=O)c(OC)c1 (stereo not shown) [Compound A11] | 0% | 0% | 5% | 5% | – | – | – |
| C#CCC1CC(=O)C(c2c(F)cc(C#CC)cc2OC)C1=O (stereo not shown) [Compound A8, 2-(2-fluoro-6-methoxy-4-prop-1-ynyl-phenyl)-4-prop-2-ynyl-cyclopentane-1,3-dione] | – | – | – | – | 0% | 75% | 17.5% |
